Assay results taken from publication PMC10450872 (ACS Central Science, 2023).
pEC50: −log10 of the molar value. Several values for one entry are separate records, joined by “and”; a condition that tells them apart may be missing. Equal values may be shown once.

Columns and labels:
hKOR (OPRK1) = biological target: T1, hKOR (OPRK1) (Homo sapiens, UniProt P41145); test: cell-based; conditions: for Emax: CHO, read-out: cAMP Emax
T1 construct: 3HA (triple haemagglutinin tag); expressed in transfected cells

hKOR [1] = biological target: T2, hKOR (Homo sapiens, UniProt P41145); test: cell-based; conditions: for Emax: read-out: βarrestin2 Emax; for pEC50: βarrestin2 pEC50
T2 construct: β-galactosidase enzyme fragment for EFC (ProLink tag of the PathHunter system; name and presence on the receptor from own knowledge); host or cells: U2OS-β-arrestin2-EFC-hKOR (PathHunter) cells

hKOR [2] = biological target: T2, hKOR; format: cell-based
[3] = mean EC50 of inhibition of forskolin-stimulated cAMP accumulation via KOR
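Wherever Emax is given: 100% = maximum response to 10 µM U69,593.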

T1 sequence (P41145 whole entry): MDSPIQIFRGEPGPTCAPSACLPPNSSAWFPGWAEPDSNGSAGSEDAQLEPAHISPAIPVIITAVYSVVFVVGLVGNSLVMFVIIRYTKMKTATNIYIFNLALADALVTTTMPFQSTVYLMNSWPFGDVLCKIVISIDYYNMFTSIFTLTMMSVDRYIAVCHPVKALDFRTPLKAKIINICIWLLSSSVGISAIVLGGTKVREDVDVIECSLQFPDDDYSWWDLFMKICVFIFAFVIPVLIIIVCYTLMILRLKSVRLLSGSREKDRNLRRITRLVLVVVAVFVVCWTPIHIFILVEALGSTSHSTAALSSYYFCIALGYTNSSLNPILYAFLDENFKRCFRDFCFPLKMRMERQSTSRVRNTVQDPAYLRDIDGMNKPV
T2 sequence (P41145 whole entry, the tested form may be a part): as the sequence (P41145 whole entry) above

SMILES: COC(=O)C1CC(OC(C)=O)C(=O)C2C3CC(c4ccoc4)CC(O)C3CCC12C (stereo not drawn) [41b]
- Emax (hKOR (OPRK1)): 103%
- pEC50 (hKOR (OPRK1); cAMP pEC50): 9.44
- pEC50 (hKOR (OPRK1); [3]): 9.40
- Emax (hKOR [1]): 86%
- pEC50 (hKOR [1]): 7.85
- Bias Factor (hKOR [2]): 2.06
- ΔΔLogτ/KA (cAMP/βarr2) (hKOR [2]): 0.486

SMILES: COC(=O)C1CC(OC(C)=O)C(=O)C2C3CC(c4ccoc4)CC(O)C3CCC12C (stereo not drawn) [41a]
- cAMP Emax (hKOR (OPRK1)): 102
- pEC50 (hKOR (OPRK1); cAMP pEC50): 8.30
- pEC50 (hKOR (OPRK1); [3]): 8.29
- βarrestin2 Emax (hKOR [1]): 85
- pEC50 (hKOR [1]): 6.91
- Bias Factor (hKOR [2]): 1.33
- ΔΔLogτ/KA (cAMP/βarr2) (hKOR [2]): 0.754

SMILES: COC(=O)[C@@H]1C[C@H](OC(C)=O)C(=O)[C@@H]2[C@H]3C[C@H](c4cccc(O)c4)CC(=O)[C@@H]3CC[C@]21C [22b]
- Emax (hKOR (OPRK1)): 95%
- pEC50 (hKOR (OPRK1); cAMP pEC50): 6.04

SMILES: COC(=O)[C@@H]1C[C@H](OC(C)=O)C(=O)[C@@H]2[C@H]3C[C@@H](Sc4ccccc4)CC(=O)[C@@H]3CC[C@]21C [compound 33]
- Emax (hKOR (OPRK1)): 92%
- pEC50 (hKOR (OPRK1); [3]): 7.02
- Emax (hKOR [1]): 131%
- pEC50 (hKOR [1]): 5.37
- Bias Factor (hKOR [2]): 0.51
- ΔΔLogτ/KA (cAMP/βarr2) (hKOR [2]): 1.946

SMILES: COC(=O)[C@@H]1C[C@H](OC(C)=O)C(=O)[C@@H]2[C@H]3C[C@@H](c4ccnc(OC)c4)CC(=O)[C@@H]3CC[C@]21C [compound 23]
- pEC50 (hKOR (OPRK1); [3]): 5.47

SMILES: COC(=O)[C@@H]1C[C@H](OC(C)=O)C(=O)[C@@H]2[C@H]3C[C@@H](c4ccncc4)CC(=O)[C@@H]3CC[C@]21C [compound 21]
- Emax (hKOR (OPRK1)): 93%
- pEC50 (hKOR (OPRK1); cAMP pEC50): 6.52
- Emax (hKOR [1]): 94%
- pEC50 (hKOR [1]): 5.48
- Bias Factor (hKOR [2]): 0.23
- ΔΔLogτ/KA (cAMP/βarr2) (hKOR [2]): 4.409

SMILES: COC(=O)[C@@H]1C[C@H](OC(C)=O)C(=O)[C@@H]2[C@H]3C[C@@H](c4ccnc5ccccc45)CC(=O)[C@@H]3CC[C@]21C [compound 25]
- Emax (hKOR (OPRK1)): 95%
- pEC50 (hKOR (OPRK1); cAMP pEC50): 6.20

SMILES: COC(=O)C1CC(OC(C)=O)C(=O)C2C3CC(c4ccccc4)CC(=NOC(C)=O)C3CCC12C (stereo not drawn) [compound 39]
- Emax (hKOR (OPRK1)): 105%
- pEC50 (hKOR (OPRK1); cAMP pEC50): 8.90
- Emax (hKOR [1]): 83%
- pEC50 (hKOR [1]): 7.01
- Bias Factor (hKOR [2]): 5.43
- ΔΔLogτ/KA (cAMP/βarr2) (hKOR [2]): 0.184

SMILES: COC(=O)[C@@H]1C[C@H](OC(C)=O)C(=O)[C@@H]2[C@H]3C[C@@H](c4ccccc4)CC(=O)[C@@H]3CC[C@]21C [24a]
- Emax (hKOR (OPRK1)): 98%
- pEC50 (hKOR (OPRK1); cAMP pEC50): 8.04
- Emax (hKOR [1]): 120%
- pEC50 (hKOR [1]): 6.66
- Bias Factor (hKOR [2]): 0.39
- ΔΔLogτ/KA (cAMP/βarr2) (hKOR [2]): 2.554

SMILES: COC(=O)[C@@H]1C[C@H](OC(C)=O)C(=O)[C@@H]2[C@H]3C[C@@H](c4cccnc4)CC(=O)[C@@H]3CC[C@]21C [compound 20]
- Emax (hKOR (OPRK1)): 105%
- pEC50 (hKOR (OPRK1); cAMP pEC50): 6.33
- Emax (hKOR [1]): 88%
- pEC50 (hKOR [1]): 5.69
- Bias Factor (hKOR [2]): 0.17
- ΔΔLogτ/KA (cAMP/βarr2) (hKOR [2]): 5.896

SMILES: COC(=O)C1CC(OC(C)=O)C(=O)C2C3CC(c4ccoc4)CC(=NO)C3CCC12C (stereo not drawn) [compound 36]
- Emax (hKOR (OPRK1)): 105%
- pEC50 (hKOR (OPRK1); cAMP pEC50): 9.46
- pEC50 (hKOR (OPRK1); [3]): 9.40
- Emax (hKOR [1]): 83%
- pEC50 (hKOR [1]): 7.89
- Bias Factor (hKOR [2]): 2.66
- ΔΔLogτ/KA (cAMP/βarr2) (hKOR [2]): 0.375

SMILES: COC(=O)[C@@H]1C[C@H](OC(C)=O)C(=O)[C@@H]2[C@H]3C[C@@H](c4cccc(Cl)c4)CC(=O)[C@@H]3CC[C@]21C [compound 31]
- Emax (hKOR (OPRK1)): 103%
- pEC50 (hKOR (OPRK1); cAMP pEC50): 8.37
- pEC50 (hKOR (OPRK1); [3]): 8.38
- Emax (hKOR [1]): 123%
- pEC50 (hKOR [1]): 6.20
- Bias Factor (hKOR [2]): 2.50
- ΔΔLogτ/KA (cAMP/βarr2) (hKOR [2]): 0.399

SMILES: COC(=O)[C@@H]1C[C@H](OC(C)=O)C(=O)[C@@H]2[C@H]3C[C@@H](c4ccc(Cl)cc4)CC(=O)[C@@H]3CC[C@]21C [compound 29]
- Emax (hKOR (OPRK1)): 103%
- pEC50 (hKOR (OPRK1); cAMP pEC50): 7.17
- Emax (hKOR [1]): 51%
- pEC50 (hKOR [1]): 6.07
- Bias Factor (hKOR [2]): 3.16
- ΔΔLogτ/KA (cAMP/βarr2) (hKOR [2]): 0.316

SMILES: C#CC1(O)CC(c2ccccc2)CC2C1CCC1(C)C(C(=O)OC)CC(OC(C)=O)C(=O)C21 (stereo not drawn) [40a]
- cAMP Emax (hKOR (OPRK1)): 105
- pEC50 (hKOR (OPRK1); [3]): 8.16
- βarrestin2 Emax (hKOR [1]): 80
- pEC50 (hKOR [1]): 6.13
- Bias Factor (hKOR [2]): 9.83 and 7.4–9.8
- ΔΔLogτ/KA (cAMP/βarr2) (hKOR [2]): 0.102

SMILES: COC(=O)[C@@H]1C[C@H](OC(C)=O)C(=O)[C@@H]2[C@H]3C[C@@H](c4cccc(C)c4)CC(=O)[C@@H]3CC[C@]21C [compound 30]
- Emax (hKOR (OPRK1)): 105%
- pEC50 (hKOR (OPRK1); cAMP pEC50): 7.84
- pEC50 (hKOR (OPRK1); [3]): 7.82
- Emax (hKOR [1]): 115%
- pEC50 (hKOR [1]): 6.10
- Bias Factor (hKOR [2]): 1.26
- ΔΔLogτ/KA (cAMP/βarr2) (hKOR [2]): 0.797

SMILES: COC(=O)[C@@H]1C[C@H](OC(C)=O)C(=O)[C@@H]2[C@H]3C[C@@H](c4ccoc4)CC(=O)[C@@H]3CC[C@]21C [compound 1, O6C-20-nor-SalA]
- Emax (hKOR (OPRK1)): 96%
- Emax (hKOR [1]): 108%
- Bias Factor (hKOR [2]): 0.34

SMILES: CON=C1CC(c2ccccc2)CC2C1CCC1(C)C(C(=O)OC)CC(OC(C)=O)C(=O)C21 (stereo not drawn) [compound 38]
- Emax (hKOR (OPRK1)): 100%
- pEC50 (hKOR (OPRK1); cAMP pEC50): 8.53
- Emax (hKOR [1]): 98%
- pEC50 (hKOR [1]): 6.61
- Bias Factor (hKOR [2]): 2.28
- ΔΔLogτ/KA (cAMP/βarr2) (hKOR [2]): 0.439

SMILES: COC(=O)[C@@H]1C[C@H](OC(C)=O)C(=O)[C@@H]2[C@H]3C[C@H](c4ccccc4)CC(=O)[C@@H]3CC[C@]21C [24b]
- Emax (hKOR (OPRK1)): 100%
- pEC50 (hKOR (OPRK1); cAMP pEC50): 7.20
- Emax (hKOR [1]): 109%
- pEC50 (hKOR [1]): 6.05
- Bias Factor (hKOR [2]): 0.32
- ΔΔLogτ/KA (cAMP/βarr2) (hKOR [2]): 3.153

SMILES: COC(=O)[C@@H]1C[C@H](OC(C)=O)C(=O)[C@@H]2[C@H]3C[C@@H](c4ccsc4)CC(=O)[C@@H]3CC[C@]21C [compound 19]
- Emax (hKOR (OPRK1)): 101%
- pEC50 (hKOR (OPRK1); cAMP pEC50): 8.83
- Emax (hKOR [1]): 105%
- pEC50 (hKOR [1]): 7.14
- Bias Factor (hKOR [2]): 1.11
- ΔΔLogτ/KA (cAMP/βarr2) (hKOR [2]): 0.898

SMILES: COC(=O)[C@@H]1C[C@H](OC(C)=O)C(=O)[C@@H]2[C@H]3C[C@@H](c4ccc(C)cc4)CC(=O)[C@@H]3CC[C@]21C [compound 28]
- Emax (hKOR (OPRK1)): 93%
- pEC50 (hKOR (OPRK1); cAMP pEC50): 6.40
- Emax (hKOR [1]): 14%
- pEC50 (hKOR [1]): 5.73
- Bias Factor (hKOR [2]): 3.88
- ΔΔLogτ/KA (cAMP/βarr2) (hKOR [2]): 0.258

SMILES: COC(=O)[C@@H]1C[C@H](OC(C)=O)C(=O)[C@@H]2[C@H]3C[C@@H](c4cccc(O)c4)CC(=O)[C@@H]3CC[C@]21C [22a]
- Emax (hKOR (OPRK1)): 97%
- pEC50 (hKOR (OPRK1); cAMP pEC50): 6.51
- Emax (hKOR [1]): 81%
- pEC50 (hKOR [1]): 5.23
- Bias Factor (hKOR [2]): 0.72
- ΔΔLogτ/KA (cAMP/βarr2) (hKOR [2]): 1.397

SMILES: COC(=O)[C@@H]1C[C@H](OC(C)=O)C(=O)[C@@H]2[C@H]3C[C@@H](c4coc5ccccc45)CC(=O)[C@@H]3CC[C@]21C [compound 26]
- Emax (hKOR (OPRK1)): 104%
- pEC50 (hKOR (OPRK1); cAMP pEC50): 7.38
- Emax (hKOR [1]): 100%
- pEC50 (hKOR [1]): 5.63
- Bias Factor (hKOR [2]): 1.87
- ΔΔLogτ/KA (cAMP/βarr2) (hKOR [2]): 0.536

SMILES: COC(=O)[C@@H]1C[C@H](OC(C)=O)C(=O)[C@@H]2[C@H]3CC=CC(=O)[C@@H]3CC[C@]21C [17a]
- Emax (hKOR (OPRK1)): 96%
- pEC50 (hKOR (OPRK1); cAMP pEC50): 4.97
- pEC50 (hKOR (OPRK1); [3]): < 5.00

SMILES: COC(=O)[C@@H]1C[C@H](OC(C)=O)C(=O)[C@@H]2[C@H]3C[C@H](c4ccoc4)CC(=O)[C@@H]3CC[C@]21C [compound 18]
- Emax (hKOR (OPRK1)): 91%
- Emax (hKOR [1]): 91%
- Bias Factor (hKOR [2]): 0.23

SMILES: C#CC1(O)CC(c2ccccc2)CC2C1CCC1(C)C(C(=O)OC)CC(OC(C)=O)C(=O)C21 (stereo not drawn) [40b]
- Emax (hKOR (OPRK1)): 104%
- pEC50 (hKOR (OPRK1); [3]): 8.36
- Emax (hKOR [1]): 92%
- pEC50 (hKOR [1]): 6.10
- Bias Factor (hKOR [2]): 7.44 and 7.4–9.8
- ΔΔLogτ/KA (cAMP/βarr2) (hKOR [2]): 0.134

SMILES: COC(=O)[C@@H]1C[C@H](OC(C)=O)C(=O)[C@@H]2[C@H]3C[C@@H](c4c[nH]c5ccccc45)CC(=O)[C@@H]3CC[C@]21C [compound 27]
- Emax (hKOR (OPRK1)): 92%
- pEC50 (hKOR (OPRK1); cAMP pEC50): 6.48
- Emax (hKOR [1]): 14%
- pEC50 (hKOR [1]): 5.69
- Bias Factor (hKOR [2]): 3.96
- ΔΔLogτ/KA (cAMP/βarr2) (hKOR [2]): 0.252

SMILES: COC(=O)[C@@H]1C[C@H](OC(C)=O)C(=O)[C@@H]2[C@H]3C[C@@H](C4=CCCCC4)CC(=O)[C@@H]3CC[C@]21C [compound 32]
- increase of potency on replacement of the 3-furyl (hKOR (OPRK1)): 20 fold
- pEC50 (hKOR (OPRK1); [3]): 9.52
